From BigSolDB 2.1

CO/N=C(\C(=O)Sc1nc2ccccc2s1)c1csc(N)n1
Details | solubility (mole fraction)
in 1,2-dichloroethane, 277.83 K | 0.000358
in 1,2-dichloroethane, 282.77 K | 0.000458
in 1,2-dichloroethane, 287.63 K | 0.000619
in 1,2-dichloroethane, 292.84 K | 0.000876
in 1,2-dichloroethane, 297.85 K | 0.00118
in 1,2-dichloroethane, 302.64 K | 0.00154
in THF, 278.4 K | 0.0243
in THF, 283.75 K | 0.0259
in THF, 288.8 K | 0.028
in THF, 293.25 K | 0.0311
in THF, 298.06 K | 0.0352
in THF, 302.95 K | 0.0397
in acetone, 278.32 K | 0.00245
in acetone, 283.31 K | 0.00286
in acetone, 288.15 K | 0.00334
in acetone, 293.2 K | 0.0039
in acetone, 298.54 K | 0.00472
in acetone, 303.28 K | 0.0057
in acetonitrile, 279.45 K | 0.000216
in acetonitrile, 283.46 K | 0.000262
in acetonitrile, 288.45 K | 0.000342
in acetonitrile, 292.98 K | 0.000451
in acetonitrile, 297.47 K | 0.000581
in acetonitrile, 302.45 K | 0.000761
in dichloromethane, 278.6 K | 0.000719
in dichloromethane, 283.64 K | 0.000967
in dichloromethane, 288.46 K | 0.00128
in dichloromethane, 294.03 K | 0.00171
in dichloromethane, 298.71 K | 0.00217
in dichloromethane, 303.44 K | 0.00267
